Reference: US20180016593A1, “HERBICIDE-RESISTANT SUNFLOWER PLANTS, POLYNUCLEOTIDES ENCODING HERBICIDE-RESISTANT ACETOHYDROXYACID SYNTHASE LARGE SUBUNIT PROTEINS, AND METHODS OF USE” (priority 2005, published 2018)

Experiments:
Experiment in all cases: Greenhouse whole-plant imazapir dose response (Example 8)
Type in all cases: in vivo, Helianthus annuus
[1] = tested on: sunflower GM1606 (Manteiner Line, A122T); details: 14 DAT
Description: (§1) A greenhouse study was conducted to quantify and contrast the imazapir sensivity of the mutants A122T and A205V in different genetic backgrounds at the whole plant level in sunflower. Seeds of the different sunflower lines that were used in this study were obtained under field conditions.
(§2) Seeds were sown in Petri dishes and, after germination, plantlets were transplanted to pots of 10 cm of diameter in a potting media consisting of equal parts of vermiculite, soil and sand. Plants were grown in a greenhouse under natural light conditions supplemented with 400 W sodium halide lamps to provide a 16 hrs daylength. Day/night temperatures were 25 and 20° C., respectively. At the V2 stage 10 plants of each genotype were randomly assigned to each treatment consisting of […] imazapir doses (0, 40, 80, 160, 240, 320, 400 and 480 g ai/ha), and a zero-time biomass determination. Experiment was arranged as a randomized block design with a full factorial (sunflower line×treatment) arrangement of treatments and 10 replications.
(§3) On the day of herbicide application ten plants of each genotype were cut at the cotyledonal node and dried at 60° C. for 48 hrs zero-time for dried weight determination.
(§4) Height was determined as the distance between the cotyledonal node and the apex of each plant. For root biomass determination, each plant was taken from the pot and the potting media was washed out from the roots. Above ground biomass data from each line were converted to biomass accumulation after application by subtracting the appropriate average zero-time biomass from each sample. Dry biomass data were converted to percentages of the untreated control plants within each line to allow direct comparisons between groups. […]

[2] = tested on: sunflower GM40 (Manteiner Line, A122T); details: 14 DAT
Description: as §1, §2, §3, §4

[3] = tested on: sunflower GIM 5-6 (Restorer Line, A122T); details: GIM5-6, 14 DAT
Description: as §1, §2, §3, §4

[4] = tested on: sunflower IR79 (Restorer Line, A205V); details: 14 DAT
Description: as §1, §2, §3, §4

## CC(C)C1(C)N=C(c2ncccc2C(=O)O)NC1=O (stereo not drawn) [imazapyr]
[1]; 0.5x (40 g ai/ha)
  biomass accumulation (above ground dry weight): 100.0 % of untreated plots
  plant height: 97.0 % of untreated plots
  root dry weight: 100 % of untreated plots
[1]; 1x (80 g ai/ha)
  biomass accumulation (above ground dry weight): 100.0 % of untreated plots
  plant height: 95.7 % of untreated plots
  root dry weight: 100.0 % of untreated plots
[1]; 2x (160 g ai/ha)
  biomass accumulation (above ground dry weight): 97.6 % of untreated plots
  plant height: 95.2 % of untreated plots
  root dry weight: 92.5 % of untreated plots
[1]; 3x (240 g ai/ha)
  biomass accumulation (above ground dry weight): 95.4 % of untreated plots
  plant height: 95.7 % of untreated plots
  root dry weight: 85.2 % of untreated plots
[1]; 4x (320 g ai/ha)
  biomass accumulation (above ground dry weight): 90.5 % of untreated plots
  plant height: 94.1 % of untreated plots
  root dry weight: 87.0 % of untreated plots
[1]; 5x (400 g ai/ha)
  biomass accumulation (above ground dry weight): 85.3 % of untreated plots
  plant height: 94.3 % of untreated plots
  root dry weight: 88.1 % of untreated plots
[1]; 6x (480 g ai/ha)
  biomass accumulation (above ground dry weight): 83.0 % of untreated plots
  plant height: 91.4 % of untreated plots
  root dry weight: 69.5 % of untreated plots
[2]; 0.5x (40 g ai/ha)
  biomass accumulation (above ground dry weight): 96.5 % of untreated plots
  plant height: 99.6 % of untreated plots
  root dry weight: 100 % of untreated plots
[2]; 1x (80 g ai/ha)
  biomass accumulation (above ground dry weight): 94.1 % of untreated plots
  plant height: 97.4 % of untreated plots
  root dry weight: 100 % of untreated plots
[2]; 2x (160 g ai/ha)
  biomass accumulation (above ground dry weight): 97.6 % of untreated plots
  plant height: 95.2 % of untreated plots
  root dry weight: 100 % of untreated plots
[2]; 3x (240 g ai/ha)
  biomass accumulation (above ground dry weight): 95.8 % of untreated plots
  plant height: 93.0 % of untreated plots
  root dry weight: 92.2 % of untreated plots
[2]; 4x (320 g ai/ha)
  biomass accumulation (above ground dry weight): 88.3 % of untreated plots
  plant height: 93.0 % of untreated plots
  root dry weight: 98.1 % of untreated plots
[2]; 5x (400 g ai/ha)
  biomass accumulation (above ground dry weight): 85.6 % of untreated plots
  plant height: 93.9 % of untreated plots
  root dry weight: 84.2 % of untreated plots
[2]; 6x (480 g ai/ha)
  biomass accumulation (above ground dry weight): 76.8 % of untreated plots
  plant height: 84.3 % of untreated plots
  root dry weight: 74.3 % of untreated plots
[3]; 0.5x (40 g ai/ha)
  biomass accumulation (above ground dry weight): 100.0 % of untreated plots
  plant height: 100.0 % of untreated plots
  root dry weight: 100 % of untreated plots
[3]; 1x (80 g ai/ha)
  biomass accumulation (above ground dry weight): 96.4 % of untreated plots
  plant height: 100.0 % of untreated plots
  root dry weight: 88.0 % of untreated plots
[3]; 2x (160 g ai/ha)
  biomass accumulation (above ground dry weight): 97.7 % of untreated plots
  plant height: 99.1 % of untreated plots
  root dry weight: 90.0 % of untreated plots
[3]; 3x (240 g ai/ha)
  biomass accumulation (above ground dry weight): 95.8 % of untreated plots
  plant height: 98.1 % of untreated plots
  root dry weight: 98.0 % of untreated plots
[3]; 4x (320 g ai/ha)
  biomass accumulation (above ground dry weight): 90.8 % of untreated plots
  plant height: 91.0 % of untreated plots
  root dry weight: 80.0 % of untreated plots
[3]; 5x (400 g ai/ha)
  biomass accumulation (above ground dry weight): 81.9 % of untreated plots
  plant height: 94.3 % of untreated plots
  root dry weight: 80.0 % of untreated plots
[3]; 6x (480 g ai/ha)
  biomass accumulation (above ground dry weight): 78.0 % of untreated plots
  plant height: 85.8 % of untreated plots
  root dry weight: 65.8 % of untreated plots
[4]; 0.5x (40 g ai/ha)
  biomass accumulation (above ground dry weight): 94.4 % of untreated plots
  plant height: 92.8 % of untreated plots
  root dry weight: 98.6 % of untreated plots
[4]; 1x (80 g ai/ha)
  biomass accumulation (above ground dry weight): 74.0 % of untreated plots
  plant height: 80.9 % of untreated plots
  root dry weight: 53.4 % of untreated plots
[4]; 2x (160 g ai/ha)
  biomass accumulation (above ground dry weight): 67.7 % of untreated plots
  plant height: 74.9 % of untreated plots
  root dry weight: 42.5 % of untreated plots
[4]; 3x (240 g ai/ha)
  biomass accumulation (above ground dry weight): 49.1 % of untreated plots
  plant height: 55.7 % of untreated plots
  root dry weight: 38.4 % of untreated plots
[4]; 4x (320 g ai/ha)
  biomass accumulation (above ground dry weight): 44.5 % of untreated plots
  plant height: 52.8 % of untreated plots
  root dry weight: 31.5 % of untreated plots
[4]; 5x (400 g ai/ha)
  biomass accumulation (above ground dry weight): 40.1 % of untreated plots
  plant height: 41.7 % of untreated plots
  root dry weight: 23.3 % of untreated plots
[4]; 6x (480 g ai/ha)
  biomass accumulation (above ground dry weight): 35.3 % of untreated plots
  plant height: 33.2 % of untreated plots
  root dry weight: 21.9 % of untreated plots
